Assay results published in patent EP1000039B1 (Wyeth Holdings Corporation, priority 1997, dated 1999).
In brackets after ≈: the same amount, converted by molar mass. Where two headings read alike, the source gives them in different places.

Tests used:
[1] = target: epidermal growth factor receptor kinase (Homo sapiens, UniProt P00533); test: Inhibition of Epidermal Growth Factor Receptor Kinase (EGF-R), cell membrane preparation (A431 membrane extract), RR-SRC peptide phosphorylation; conditions: average of the number of tests
Chain of epidermal growth factor receptor kinase (P00533 25-1210): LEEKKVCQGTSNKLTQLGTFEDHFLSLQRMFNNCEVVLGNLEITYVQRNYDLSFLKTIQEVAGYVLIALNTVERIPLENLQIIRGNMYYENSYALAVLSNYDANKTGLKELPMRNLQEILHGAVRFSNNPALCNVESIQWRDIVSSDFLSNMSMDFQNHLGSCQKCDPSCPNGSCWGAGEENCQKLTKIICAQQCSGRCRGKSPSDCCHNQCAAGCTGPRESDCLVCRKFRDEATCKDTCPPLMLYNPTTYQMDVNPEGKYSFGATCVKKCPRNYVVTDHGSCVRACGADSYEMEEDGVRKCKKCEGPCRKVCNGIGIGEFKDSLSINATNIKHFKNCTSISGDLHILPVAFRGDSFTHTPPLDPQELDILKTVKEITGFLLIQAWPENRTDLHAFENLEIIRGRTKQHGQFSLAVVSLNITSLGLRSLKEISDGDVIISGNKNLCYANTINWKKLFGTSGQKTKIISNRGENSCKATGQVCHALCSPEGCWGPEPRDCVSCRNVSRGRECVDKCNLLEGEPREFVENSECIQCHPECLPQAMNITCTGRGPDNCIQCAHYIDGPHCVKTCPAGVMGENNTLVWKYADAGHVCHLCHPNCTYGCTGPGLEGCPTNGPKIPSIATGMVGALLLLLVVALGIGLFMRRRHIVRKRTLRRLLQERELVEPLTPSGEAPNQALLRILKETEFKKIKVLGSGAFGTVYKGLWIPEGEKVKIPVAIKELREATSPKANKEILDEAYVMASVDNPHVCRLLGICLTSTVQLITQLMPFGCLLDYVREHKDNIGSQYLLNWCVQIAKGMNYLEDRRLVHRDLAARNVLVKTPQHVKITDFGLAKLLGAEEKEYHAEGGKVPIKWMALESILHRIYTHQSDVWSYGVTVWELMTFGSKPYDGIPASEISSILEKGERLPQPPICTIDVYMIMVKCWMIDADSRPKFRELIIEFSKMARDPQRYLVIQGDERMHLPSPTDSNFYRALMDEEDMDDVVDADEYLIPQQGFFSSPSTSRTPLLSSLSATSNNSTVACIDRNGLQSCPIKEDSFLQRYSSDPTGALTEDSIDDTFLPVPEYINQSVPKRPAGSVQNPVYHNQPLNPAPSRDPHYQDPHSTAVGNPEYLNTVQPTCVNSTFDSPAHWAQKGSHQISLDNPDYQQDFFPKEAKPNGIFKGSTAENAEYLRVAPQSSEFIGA
Method: Test compounds were evaluated for their ability to inhibit the phosphorylation of the tyrosine residue of a peptide substrate catalyzed by the enzyme epidermal growth factor receptor kinase. […] The enzyme was obtained as a membrane extract of A431 cells (American Type Culture Collection, Rockville, MD). A431 cells were grown in T175 flasks to 80% confluency. The cells were washed twice with phosphate buffered saline (PBS) without Ca^2+. Flasks were rotated for 1.5 hours in 20 mL PBS with 1.0 mM ethylenediaminetetraacetic acid (EDTA) at room temperature and centrifuged at 600g for 10 minutes. […]
An aliquot of the A431 membrane extract (10 mg/mL) was diluted in 30 mM HEPES (pH 7.4) to give a protein concentration of 50 ug/mL. […] The % inhibition of the test compound was determined for at least three different concentrations and the IC50 value was evaluated from the dose response curve. […] CPM(control) is in units of counts per minute and was a number expressing the amount of radiolabled ATP (γ-^33P) incorporated onto the RR-SRC peptide substrate by the enzyme after 30 minutes at 30°C in the absence of test compound as measured by liquid scintillation counting. […]

[2] = test system: SW620; test: Inhibition of Cancer Cell Growth (Sulforhodamine B); assay type: cell-based, Human; conditions: Homo sapiens, SW-620, 48 hours exposure, read-out: Inhibition of Cancer Cell Growth as Measured by Cell Number (IC50) SW620
Method: (§1) After 48 hours exposure to test compounds, cells were fixed with trichloroacetic acid, and stained with Sulforhodamine B. After washing with trichloroacetic acid, bound dye was solubilized in 10 mM Tris base and optical density was determined using plate reader. Under conditions of the assay the optical density is proportional to the number of cells in the well. […] The test procedure is described in details by Philip Skehan et. al. J.Natl. Canc. […]

[3] = test system: A2780DDP; test: as above; assay type: cell-based, Human; conditions: Homo sapiens, 48 hours exposure, read-out: Inhibition of Cancer Cell Growth as Measured by Cell Number (IC50) A2780DDP
Method: as §1

[4] = test system: LOX; test: as above; assay type: cell-based, Human; conditions: Homo sapiens, 48 hours exposure, read-out: Inhibition of Cancer Cell Growth as Measured by Cell Number (IC50) LOX
Method: as §1

[5] = test system: MCF7; test: as above; assay type: cell-based, Human; conditions: Homo sapiens, 48 hours exposure, read-out: Inhibition of Cancer Cell Growth as Measured by Cell Number (IC50) MCF7
Method: as §1

[6] = test system: A431; test: as above; assay type: cell-based, Human; conditions: Homo sapiens, A-431, 48 hours exposure, read-out: Inhibition of Cancer Cell Growth as Measured by Cell Number (IC50) A431
Method: as §1

[7] = test system: A2780S; test: as above; assay type: cell-based, Human; conditions: Homo sapiens, 48 hours exposure, read-out: Inhibition of Cancer Cell Growth as Measured by Cell Number (IC50) A2780S
Method: as §1

[8] = target: T1, His-tagged cytoplasmic domain of EGFR (Homo sapiens, UniProt P00533); test: Inhibition of Epidermal Growth Factor Receptor Kinase (EGF-R) using recombinant enzyme, RR-SRC peptide phosphorylation; assay type: biochemical
T1 construct: containing the EGFR cDNA encoding amino acids 645 - 1186 preceded by Met-Ala-(His)6; Met-Ala-(His)6 (N); made in house; host or cells: Sf9 insect cells, recombinant baculovirus vHcEGFR52
T1 sequence (P00533 669-1210): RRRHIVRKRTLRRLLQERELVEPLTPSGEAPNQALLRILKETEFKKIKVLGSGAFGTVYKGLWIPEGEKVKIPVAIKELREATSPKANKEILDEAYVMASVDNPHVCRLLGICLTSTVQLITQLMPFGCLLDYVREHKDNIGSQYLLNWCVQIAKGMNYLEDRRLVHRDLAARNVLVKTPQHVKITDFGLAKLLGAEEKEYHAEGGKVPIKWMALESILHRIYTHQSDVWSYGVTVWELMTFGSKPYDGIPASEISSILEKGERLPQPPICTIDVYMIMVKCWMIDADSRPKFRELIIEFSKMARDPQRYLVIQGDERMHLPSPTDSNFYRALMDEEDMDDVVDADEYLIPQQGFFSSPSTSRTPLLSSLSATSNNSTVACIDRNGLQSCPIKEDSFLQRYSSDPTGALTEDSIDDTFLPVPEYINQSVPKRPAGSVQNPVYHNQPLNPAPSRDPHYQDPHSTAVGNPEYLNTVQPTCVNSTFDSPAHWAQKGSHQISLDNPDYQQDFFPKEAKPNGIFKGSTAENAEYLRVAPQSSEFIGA
Method: The enzyme used in this assay is the His-tagged cytoplasmic domain of EGFR. […] Sf9 cells in 100 mm plates were infected at an moi of 10 pfu/cell and cells were harvested 48 h post infection. A cytoplasmic extract was prepared using 1% Triton X-100 and applied to Ni-NTA column. After washing the column with 20 mM imidazole, HcEGFR was eluted with 250 mM imidazole (in 50 mM Na2HPO4, pH 8.0, 300 mM NaCl). Fractions collected were dialyzed against 10 mM HEPES, pH 7.0, 50 mM NaCl, 10% glycerol, 1ug/mL antipain and leupeptin and 0. 1 mM Pefabloc SC. The protein was frozen in dry ice/methanol and stored -70°C.
For the enzyme reaction, 10 uL of each inhibitor (at various concentrations) were added to each well of a 96-well plate. To this was added 3 uL of enzyme (1: 10 dilution in 10mM HEPES, pH 7.4 for final conc. of 1:120). This was allowed to sit for 10 min on ice and was followed by the addition of 5 ul peptide (80 uM final conc.), 10ul of 4X Buffer (Table A), 0.25 uL ^33P-ATP and 12 uL H2O. The reaction was allowed to run for 90 min at room temperature and was followed by spotting the entire volume on to precut P81 filter papers. The filter discs were washed 2X with 0.5% phosphoric acid and radioactivity was measured using a liquid scintillation counter.

[9] = test system: MB435; test: Inhibition of Cancer Cell Growth (Sulforhodamine B); assay type: cell-based, Human; conditions: Homo sapiens, 48 hours exposure, read-out: Inhibition of Cancer Cell Growth as Measured by Cell Number (IC50) MB435
Method: as §1

[10] = test system: SKBR3; test: as above; assay type: cell-based, Human; conditions: Homo sapiens, SK-BR-3, 48 hours exposure, read-out: Inhibition of Cancer Cell Growth as Measured by Cell Number (IC50) SKBR3
Method: as §1

[11] = test system: Human Epidermoid Tumors (A431); test: In Vivo Inhibition of the Growth of Human Epidermoid Tumors (A431) in mice; conditions: days 1 through 10
[12] = test system: Human Epidermoid Tumors (A431); test: as above
Method: BALB/c nu/nu female mice (Charles River, Wilmington, MA) were used in the in vivo standard pharmacological test procedures. Human epidermoid carcinoma cells A-431 (American Type Culture Collection, Rockville, Maryland # CRL-155) were grown in vitro as described above. A unit of 5 X 10^6 cells were injected SC into mice. When tumors attained a mass of between 100 and 150 mg, the mice were randomized into treatment groups (day zero). Mice were treated iP or PO once a day either on days 1, 5, and 9 or on days 1 through 10 post staging with doses of either 80, 40 or 20, or 10 mg/kg/dose of the compound to be evaluated in 0.2% Klucel. Control animals received no drug. Tumor mass was determined every 7 days [(length X width^2)/2) for 28 days post staging. Relative tumor growth (Mean tumor mass on day 7, 14, 21, and 28 divided by the mean tumor mass on day zero) is determined for each treatment group. The %T/C (Tumor/Control) is determined by dividing the relative tumor growth of the treated group by the relative tumor growth of the placebo group and multiplying by 100. A compound is considered to be active if the %T/C is found to be […].

[13] = recombinant enzyme, average of the number of tests, read-out: IC50

Row | SMILES | IC50 [1] | IC50 [2] | IC50 [3] | IC50 [4] | IC50 [5] | IC50 [6] | IC50 [7] | IC50 [8, 13] | IC50 [9] | IC50 [10] | %T/C Day 16 ([11]; 10 mg/kg/dose PO (footnote: IP)) | %T/C Day 16 ([11]; 20 mg/kg/dose PO (footnote: IP)) | %T/C Day 16 ([11]; 40 mg/kg/dose PO (footnote: IP)) | S/T (No. Survivors/No. Treated on Day +28 post tumor staging) ([12]; Table 5: 40 PO, days 1 through 10) | %T/C Day 7 ([12]; Table 5: 40 PO, days 1 through 10, Day 7) | %T/C Day 14 ([12]; Table 5: 40 PO, days 1 through 10, Day 14) | %T/C Day 21 ([12]; Table 5: 40 PO, days 1 through 10, Day 21) | %T/C Day 28 ([12]; Table 5: 40 PO, days 1 through 10, Day 28) | inhibition of tumor growth in vivo (result in words) ([12]; summary of the results of TABLE 4 / TABLE 5) | IC50 [8]
1 | CCOc1c(Nc2ccc3ncnc(Nc4cccc(Br)c4)c3c2)c(=O)c1=O [Example 48, 3-[4-(3-Bromo-phenylamino)-quinazolin-6-ylamino]-4-ethoxy-cyclobut-3-ene-1,2-dione] |  | 2.81 µg/mL (≈ 6.4 µM) | 3.71 µg/mL (≈ 8.45 µM) | 3.55 µg/mL (≈ 8.08 µM) | 5.42 µg/mL (≈ 12.3 µM) | 3.11 µg/mL (≈ 7.08 µM) | 4.74 µg/mL (≈ 10.8 µM) | 2 nM | 5.48 µg/mL (≈ 12.5 µM) | 3.79 µg/mL (≈ 8.63 µM) |  |  |  |  |  |  |  |  |  | 
2 | Nc1c(Nc2ccc3ncnc(Nc4cccc(Br)c4)c3c2)c(=O)c1=O [Example 51, 3-Amino-4-[4-(3-bromo-phenylamino)-quinazolin-6-ylamino]-cyclobut-3-ene-1,2-dione] |  | > 100 µg/mL | 6.92 µg/mL (≈ 16.9 µM) | 56.5 µg/mL (≈ 138 µM) | > 100 µg/mL | 6.84 µg/mL (≈ 16.7 µM) | 56.9 µg/mL (≈ 139 µM) | 7 nM | > 100 µg/mL | 6.21 µg/mL (≈ 15.1 µM) |  |  |  |  |  |  |  |  |  | 
3 | CN(C)CC#CC(=O)Nc1ccc2ncnc(Nc3cccc(Br)c3)c2c1 [Example 21, 4-Dimethylamino-but-2-ynoic acid [4-(3-bromo-phenylamino)-quinazolin-6-yl]-amide] |  |  |  |  |  |  |  |  |  |  | 56% | 82% | 84% |  |  |  |  |  |  | 
4 | CCN(CC)CC#CC(=O)Nc1ccc2ncnc(Nc3cccc(Br)c3)c2c1 [Example 25, 4-Diethylamino-but-2-ynoic acid [4-(3-bromo-phenylamino)-quinazolin-6-yl]-amide] |  | 0.07 µg/mL (≈ 0.155 µM) | 0.04 µg/mL (≈ 0.0884 µM) | 0.1 µg/mL (≈ 0.221 µM) | 0.74 µg/mL (≈ 1.64 µM) | 0.06 µg/mL (≈ 0.133 µM) | 0.04 µg/mL (≈ 0.0884 µM) | 14 nM | 0.05 µg/mL (≈ 0.111 µM) | 0.004 µg/mL (≈ 0.00884 µM) |  |  |  | 4/5 | 71% | 33% | 40% | 52% | effective inhibitor of tumor growth in vivo | 
5 | O=C(C#CCN1CCOCC1)Nc1ccc2ncnc(Nc3cccc(Br)c3)c2c1 [Example 19, 4-Morpholin-4-yl-but-2-ynoic acid [4-(3-bromo-phenylamino)-quinazolin-6-yl]-amide] |  | 1.1 µg/mL (≈ 2.36 µM) | 3.32 µg/mL (≈ 7.12 µM) | 3.55 µg/mL (≈ 7.61 µM) | 6.36 µg/mL (≈ 13.6 µM) | 0.02 µg/mL (≈ 0.0429 µM) | 4.37 µg/mL (≈ 9.37 µM) |  | 5.95 µg/mL (≈ 12.8 µM) | 0.003 µg/mL (≈ 0.00643 µM) |  |  |  |  |  |  |  |  |  | 50 nM

Second part, led by results:

Row | IC50 [1] | IC50 [2] | IC50 [3] | IC50 [4] | IC50 [5] | IC50 [6] | IC50 [7] | IC50 [8, 13] | IC50 [9] | IC50 [10] | SMILES | %T/C Day 16 ([11]; 10 mg/kg/dose PO (footnote: IP)) | %T/C Day 16 ([11]; 20 mg/kg/dose PO (footnote: IP)) | %T/C Day 16 ([11]; 40 mg/kg/dose PO (footnote: IP)) | S/T (No. Survivors/No. Treated on Day +28 post tumor staging) ([12]; Table 5: 40 PO, days 1 through 10) | %T/C Day 7 ([12]; Table 5: 40 PO, days 1 through 10, Day 7) | %T/C Day 14 ([12]; Table 5: 40 PO, days 1 through 10, Day 14) | %T/C Day 21 ([12]; Table 5: 40 PO, days 1 through 10, Day 21) | %T/C Day 28 ([12]; Table 5: 40 PO, days 1 through 10, Day 28) | inhibition of tumor growth in vivo (result in words) ([12]; summary of the results of TABLE 4 / TABLE 5) | IC50 [8]
6 | 1.26 nM | 0.581 µg/mL (≈ 1.41 µM) | 0.603 µg/mL (≈ 1.46 µM) | 0.482 µg/mL (≈ 1.17 µM) | 1.58 µg/mL (≈ 3.82 µM) | 0.315 µg/mL (≈ 0.762 µM) | 0.424 µg/mL (≈ 1.03 µM) |  |  |  | C=C(CNc1ccc2ncnc(Nc3cccc(Br)c3)c2c1)C(=O)OC [Example 59, 2-{[4-(3-Bromo-phenylamino)-quinazolin-6-ylamino]-methyl)-acrylic acid methyl ester] |  |  |  |  |  |  |  |  |  | 
7 | 34 nM | 1.89 µg/mL (≈ 4.57 µM) | 0.626 µg/mL (≈ 1.51 µM) | 0.725 µg/mL (≈ 1.75 µM) | 0.566 µg/mL (≈ 1.37 µM) | 0.35 µg/mL (≈ 0.847 µM) | 0.749 µg/mL (≈ 1.81 µM) |  |  |  | COC(=O)/C=C/CNc1ccc2ncnc(Nc3cccc(Br)c3)c2c1 [Example 60, (E)-4-[4-(3-Bromo-phenylamino)-quinazolin-6-ylamino]-but-2-enoicacid methyl ester] |  |  |  |  |  |  |  |  |  | 
8 |  | > 100 µg/mL | > 100 µg/mL | > 100 µg/mL | > 100 µg/mL | > 100 µg/mL | > 100 µg/mL | 0.4 nM | > 100 µg/mL | > 100 µg/mL | CNc1c(Nc2ccc3ncnc(Nc4cccc(Br)c4)c3c2)c(=O)c1=O [Example 50, 3-[4-(3-Bromo-phenylamino)-quinazolin-6-ylamino]-4-methylamino-cyclobut-3-ene-1,2-dione] |  |  |  |  |  |  |  |  |  | 
9 |  | 0.06 µg/mL (≈ 0.146 µM) | 0.06 µg/mL (≈ 0.146 µM) | 0.02 µg/mL (≈ 0.0486 µM) | 0.5 µg/mL (≈ 1.22 µM) | 0.05 µg/mL (≈ 0.122 µM) | 0.12 µg/mL (≈ 0.292 µM) | 0.31 nM | 0.8 µg/mL (≈ 1.95 µM) | 0.06 µg/mL (≈ 0.146 µM) | COCC#CC(=O)Nc1ccc2ncnc(Nc3cccc(Br)c3)c2c1 [Example 23, 4-Methoxy-but-2-ynoic acid [4-(3-bromo-phenylamino)-quinazolin-6-yl]-amide] |  |  |  |  |  |  |  |  |  | 
10 |  | 1.8 µg/mL (≈ 4.08 µM) | 2.5 µg/mL (≈ 5.67 µM) | 0.9 µg/mL (≈ 2.04 µM) | 8.7 µg/mL (≈ 19.7 µM) | 2.8 µg/mL (≈ 6.35 µM) | 0.7 µg/mL (≈ 1.59 µM) | 8 nM | 5.7 µg/mL (≈ 12.9 µM) | 1.2 µg/mL (≈ 2.72 µM) | COCOCC#CC(=O)Nc1ccc2ncnc(Nc3cccc(Br)c3)c2c1 [Example 57, 4-Methoxymethoxy-but-2-ynoic acid [4-(3-bromo-phenylamino)-quinazolin-6-yl]-amide] |  |  |  |  |  |  |  |  |  | 
11 |  | 0.06 µg/mL (≈ 0.144 µM) | 0.07 µg/mL (≈ 0.168 µM) | 0.04 µg/mL (≈ 0.0962 µM) | 0.49 µg/mL (≈ 1.18 µM) | 0.03 µg/mL (≈ 0.0722 µM) | 0.03 µg/mL (≈ 0.0722 µM) | 5 nM | 0.39 µg/mL (≈ 0.938 µM) | < 0.01 µg/mL | O=C(C#CCCl)Nc1ccc2ncnc(Nc3cccc(Br)c3)c2c1 [Example 12, 4-Chloro-but-2-ynoic acid [4-(3-bromo-phenylamino)-quinazolin-6-y]-amide] |  |  |  |  |  |  |  |  |  | 
